Read-outs that look alike come from different tables or passages of the source.
Columns and labels:
Tilapia = details: cited from earlier work
glutathione peroxidase = test: Glutathione peroxidase study; type: biochemical; details: A340 nm, 25 degrees Celsius
Experimental: The inventive oxygen-enriched output fluid material was tested for the presence of hydrogen peroxide by testing the reactivity with glutathione peroxidase using a standard assay (Sigma). Briefly, glutathione peroxidase enzyme cocktail was constituted in deionized water and the appropriate buffers. Water samples were tested by adding the enzymatic reagents. Continuous spectrophotometric rate determination was made at A340 nm, and room temperature (25 degrees Celsius).

Compound | final increase in weight of the fish (Tilapia; high dissolved oxygen levels (approximately 7.0 ppm)) [grams] | final increase in weight of the fish (Tilapia; low DO levels (less than 2 ppm)) [g] | reduction in growth rates (Tilapia; low DO versus high DO) [%] | final increase in weight of the fish (Tilapia; mid-level DO (approximately 3.5 ppm)) [grams] | reduction in growth rates (Tilapia; mid-level DO versus high DO) [%] | reactivity with glutathione peroxidase (glutathione peroxidase)
O=O [dissolved oxygen, oxygen] | 19 | 1.5 | 92 | 5 | 74 | 
OO [hydrogen peroxide] |  |  |  |  |  | strong reactivity
